Strand notation (5' to 3'): a small letter for the sugar, then the base; units joined by * are phosphorothioate-linked, units joined directly phosphodiester-linked; [ ] holds rarer units or linkages, { } end groups; capitals alone tell only the bases. e = 2'-O-(2-methoxyethyl) (MOE); k = constrained ethyl (cEt); [5mC] = 5-methylcytosine; d = 2'-deoxy (DNA)
System: human PKK mRNA
Assay: Antisense inhibition of human PKK mRNA in HepaRG cells, 1,000 nM, MOE/deoxy/cEt oligonucleotides (Example 3)
Assay type: cell-based
How it was run: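 Readout is percent PKK mRNA reduction against untreated controls, by real-time PCR (RTS3454) adjusted for total RNA via RIBOGREEN. Oligonucleotides, phosphorothioate gapmers of 16 nucleosides with cEt, MOE and deoxy sugars, were delivered at 1,000 nM by electroporation to 20,000 HepaRG cells/well for roughly 24 h.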

[1] = HepaRG cells, electroporation with 1,000 nM antisense oligonucleotide, approximately 24 hours, primer probe set RTS3454, relative to untreated control cells, experiment of Table 23
[2] = HepaRG cells, electroporation with 1,000 nM antisense oligonucleotide, approx. 24 hours, PKK mRNA by RT-PCR (RTS3454), relative to untreated control cells, Table 26 experiment
[3] = Table 19, HepaRG cells, electroporation with 1,000 nM antisense oligonucleotide, approximately 24 hours, PKK mRNA by RT-PCR (RTS3454), relative to untreated control cells
[4] = Table 27, HepaRG cells, 1,000 nM antisense oligonucleotide, human PKK mRNA
[5] = PKK mRNA, HepaRG cells, 1,000 nM antisense oligonucleotide, Table 31
[6] = Table 30, human PKK mRNA, HepaRG cells, 1,000 nM antisense oligonucleotide
[7] = HepaRG cells, electroporation with 1,000 nM antisense oligonucleotide, approximately 24 hours, primer probe set RTS3454, relative to untreated control cells, experiment of Table 24
[8] = HepaRG cells, electroporation with 1,000 nM antisense oligonucleotide, approx. 24 hours, PKK mRNA by RT-PCR (RTS3454), relative to untreated control cells, Table 25 experiment
[9] = Table 28, HepaRG cells, 1,000 nM antisense oligonucleotide, human PKK mRNA

Substance: 547975 (antisense e[5mC]*eA*kA*dA*dG*dT*d[5mC]*dA*dA*d[5mC]*dT*d[5mC]*d[5mC]*k[5mC]*kG*eG) [compound 547975]
- % inhibition [1]: 44%

Substance: 547921 (eT*eG*kA*dG*dA*dA*d[5mC]*d[5mC]*d[5mC]*dT*dG*dG*d[5mC]*kA*kA*e[5mC]; antisense) [compound 547921]
- % inhibition [1]: 43%

Substance: 548249 (antisense eT*eG*kT*dG*dA*dT*dG*d[5mC]*dG*dA*dT*dT*dT*kT*k[5mC]*e[5mC]) [compound 548249]
- % inhibition [2]: 22%

Substance: 548277 (antisense eG*eG*kA*dT*dT*dG*dG*dA*d[5mC]*d[5mC]*d[5mC]*dA*dG*kA*k[5mC]*eA) [compound 548277]
- % inhibition [2]: 57%

Substance: 547977 (antisense e[5mC]*e[5mC]*kT*d[5mC]*d[5mC]*dA*dA*dA*dG*dT*d[5mC]*dA*dA*k[5mC]*kT*e[5mC]) [compound 547977]
- % inhibition [1]: 57%

Substance: 548103 (antisense eT*eG*kT*dA*d[5mC]*dT*d[5mC]*dA*dG*d[5mC]*dG*dA*d[5mC]*kT*kT*eT) [compound 548103]
- % inhibition [3]: 66%

Substance: 548351 (antisense e[5mC]*eT*kG*dG*dA*dA*dA*d[5mC]*dG*dA*dG*dA*d[5mC]*kA*k[5mC]*eA) [compound 548351]
- % inhibition [4]: 33%

Substance: 548662 (antisense eT*eG*k[5mC]*dT*dT*dA*dA*dA*dA*dG*dT*d[5mC]*dT*k[5mC]*k[5mC]*e[5mC]) [compound 548662]
- % inhibition [5]: 5%

Substance: 548684 (antisense e[5mC]*eA*kA*dG*dA*d[5mC]*d[5mC]*dT*dT*dG*d[5mC]*dT*dT*kG*k[5mC]*e[5mC]) [compound 548684]
- % inhibition [5]: 24%

Substance: 548453 (eT*eA*k[5mC]*d[5mC]*dT*dA*dT*dA*dA*d[5mC]*dA*dG*dT*kA*kT*e[5mC]; antisense) [compound 548453]
- % inhibition [6]: 12%

Substance: 548641 (antisense eG*e[5mC]*kA*dT*d[5mC]*dA*dT*dG*d[5mC]*dT*dT*dA*d[5mC]*kT*kG*e[5mC]) [compound 548641]
- % inhibition [5]: 23%

Substance: 548051 (eA*eA*kG*dG*d[5mC]*dG*dA*dT*dA*dT*d[5mC]*dA*dT*kG*kA*eT; antisense) [compound 548051]
- % inhibition [7]: 61%

Substance: 548229 (e[5mC]*eA*kT*dT*dG*dT*dT*dG*dT*dG*dT*dG*dG*k[5mC]*k[5mC]*e[5mC]; antisense) [compound 548229]
- % inhibition [2]: 31%

Substance: 548622 (antisense eT*eT*kT*d[5mC]*dT*dA*dT*dG*dG*dG*d[5mC]*d[5mC]*dT*kG*kA*e[5mC]) [compound 548622]
- % inhibition [5]: 0%

Substance: 547990 (antisense eA*e[5mC]*kT*dG*dA*d[5mC]*dA*dG*d[5mC]*dG*dA*dA*dT*k[5mC]*kA*eT) [compound 547990]
- % inhibition [1]: 58%

Substance: 548211 (eA*e[5mC]*k[5mC]*dA*dA*d[5mC]*dA*dA*dT*d[5mC]*dT*d[5mC]*dT*kG*kG*eT; antisense) [compound 548211]
- % inhibition [8]: 51%

Substance: 548480 (eG*e[5mC]*k[5mC]*dA*d[5mC]*dG*d[5mC]*d[5mC]*d[5mC]*dT*dT*dA*dG*k[5mC]*kA*eG; antisense) [compound 548480]
- % inhibition [9]: 20%

Substance: 548107 (antisense eT*e[5mC]*k[5mC]*dA*dT*dG*dT*dA*d[5mC]*dT*d[5mC]*dA*dG*k[5mC]*kG*eA) [compound 548107]
- % inhibition [3]: 76%

Substance: 548143 (e[5mC]*eA*k[5mC]*dT*d[5mC]*dT*d[5mC]*d[5mC]*dA*dT*dG*d[5mC]*dT*kT*kT*eG; antisense) [compound 548143]
- % inhibition [3]: 39%

Substance: 548063 (eG*eT*kA*dT*dA*dA*dA*dT*dT*dG*dT*dG*d[5mC]*kT*kT*eG; antisense) [compound 548063]
- % inhibition [7]: 35%

Substance: 548115 (antisense e[5mC]*eA*kT*dG*d[5mC]*dT*dG*dG*dT*dG*dA*d[5mC]*dT*kG*k[5mC]*eA) [compound 548115]
- % inhibition [3]: 76%

Substance: 548436 (antisense eA*eT*kA*dT*d[5mC]*dA*d[5mC]*dT*dG*dT*dA*d[5mC]*d[5mC]*kT*kG*eT) [compound 548436]
- % inhibition [6]: 8%

Substance: 548138 (e[5mC]*e[5mC]*k[5mC]*d[5mC]*dA*dG*dG*d[5mC]*dT*d[5mC]*dA*dG*dA*kA*kT*eT; antisense) [compound 548138]
- % inhibition [3]: 52%

Substance: 548193 (eT*eG*kT*d[5mC]*d[5mC]*dT*dG*dT*d[5mC]*dA*dA*d[5mC]*dA*kT*kA*eT; antisense) [compound 548193]
- % inhibition [8]: 58%

Substance: 548443 (antisense eG*eT*kT*dT*d[5mC]*d[5mC]*dT*dA*dT*dA*dA*d[5mC]*dA*kG*kT*eA) [compound 548443]
- % inhibition [6]: 12%

Substance: 548019 (e[5mC]*e[5mC]*k[5mC]*d[5mC]*dA*dA*dG*dA*dA*dG*dA*dG*dT*kT*kT*eG; antisense) [compound 548019]
- % inhibition [7]: 24%

Substance: 548097 (antisense eT*eG*k[5mC]*dT*d[5mC]*d[5mC]*d[5mC]*dT*dG*d[5mC]*dG*dG*dG*k[5mC]*kA*e[5mC]) [compound 548097]
- % inhibition [3]: 2%

Substance: 548380 (eG*e[5mC]*k[5mC]*d[5mC]*dA*dG*dT*dT*dT*dT*dG*dG*d[5mC]*kA*kA*e[5mC]; antisense) [compound 548380]
- % inhibition [4]: 7%

Substance: 548379 (eA*eT*k[5mC]*dG*dA*dA*d[5mC]*dT*d[5mC]*dT*dG*d[5mC]*dT*kT*kG*eA; antisense) [compound 548379]
- % inhibition [4]: 44%

Substance: 548630 (antisense eT*eG*kG*dT*d[5mC]*d[5mC]*d[5mC]*dA*dA*dA*dT*dT*dG*kG*kA*eG) [compound 548630]
- % inhibition [5]: 33%

Substance: 548262 (antisense e[5mC]*e[5mC]*kT*dA*dT*d[5mC]*d[5mC]*dG*dT*dG*dT*dT*d[5mC]*kA*kG*e[5mC]) [compound 548262]
- % inhibition [2]: 73%

Substance: 548030 (e[5mC]*eT*kG*dG*dT*dG*dT*d[5mC]*d[5mC]*dT*dA*dT*dG*kA*kG*eT; antisense) [compound 548030]
- % inhibition [7]: 52%

Substance: 548560 (antisense e[5mC]*eA*k[5mC]*dT*dG*d[5mC]*d[5mC]*dT*dA*dG*dA*dA*dA*kG*kG*e[5mC]) [compound 548560]
- % inhibition (HepaRG cells, 1,000 nM antisense oligonucleotide, Table 29): 16%

Substance: 548634 (antisense eG*e[5mC]*k[5mC]*dT*dT*dA*dT*dT*d[5mC]*dT*dG*dT*dG*k[5mC]*kA*eA) [compound 548634]
- % inhibition [5]: 0%

Substance: 548408 (antisense eT*eA*kT*d[5mC]*dA*d[5mC]*dT*dG*dT*dA*d[5mC]*dT*dA*kG*kT*eT) [compound 548408]
- % inhibition [6]: 47%

Substance: 547966 (antisense eA*eG*kG*dG*dT*dT*d[5mC]*dA*dG*dG*dT*dA*dA*kA*kG*eT) [compound 547966]
- % inhibition [1]: 13%

Substance: 548438 (antisense e[5mC]*eT*kA*dT*dA*dT*d[5mC]*dA*d[5mC]*dT*dG*dT*dA*k[5mC]*k[5mC]*eT) [compound 548438]
- % inhibition [6]: 38%

Substance: 548490 (antisense eT*e[5mC]*kT*dG*dG*dT*dT*dA*dG*d[5mC]*d[5mC]*dT*d[5mC]*k[5mC]*kG*eA) [compound 548490]
- % inhibition [9]: 58%

Substance: 548663 (antisense eG*e[5mC]*k[5mC]*d[5mC]*dT*dA*dG*dA*dA*dG*dG*dG*d[5mC]*k[5mC]*k[5mC]*eA) [compound 548663]
- % inhibition [5]: 20%

Substance: 547952 (e[5mC]*eA*kG*dA*dT*dA*dT*dG*dG*dT*dG*dT*dT*kT*kT*e[5mC]; antisense) [compound 547952]
- % inhibition [1]: 46%

Substance: 548216 (eG*eT*kG*d[5mC]*dA*dT*dA*dG*dA*d[5mC]*d[5mC]*d[5mC]*d[5mC]*kA*kA*e[5mC]; antisense) [compound 548216]
- % inhibition [8]: 45%

Substance: 548236 (eT*eA*k[5mC]*dA*dT*d[5mC]*dT*dA*dG*dA*dT*dG*dA*k[5mC]*k[5mC]*eT; antisense) [compound 548236]
- % inhibition [2]: 37%

Substance: 548317 (e[5mC]*e[5mC]*kG*dG*dG*dA*dA*dA*dG*dA*d[5mC]*dT*dG*kT*k[5mC]*eT; antisense) [compound 548317]
- % inhibition [4]: 42%

Substance: 548075 (eA*e[5mC]*k[5mC]*dT*dT*dT*d[5mC]*dT*d[5mC]*d[5mC]*dT*dT*d[5mC]*kG*kA*eG; antisense) [compound 548075]
- % inhibition [3]: 0%

Substance: 548462 (eA*e[5mC]*k[5mC]*dT*dA*dT*dA*dT*d[5mC]*dA*d[5mC]*dT*dG*kT*kA*eA; antisense) [compound 548462]
- % inhibition [9]: 0%

Substance: 547874 (antisense eA*e[5mC]*kT*dG*d[5mC]*dT*dA*dA*d[5mC]*d[5mC]*dT*dT*dA*kG*kA*e[5mC]) [compound 547874]
- % inhibition (Table 20, HepaRG cells, electroporation with 1,000 nM antisense oligonucleotide, approximately 24 hours, PKK mRNA by RT-PCR (RTS3454), relative to untreated control cells): 70%
- % inhibition (Table 22 experiment, HepaRG cells, electroporation with 1,000 nM antisense oligonucleotide, approx. 24 hours, PKK mRNA by RT-PCR (RTS3454), relative to untreated control cells): 60%

Substance: 548322 (eA*eG*kG*dG*dA*dA*dA*dT*dT*dA*dG*dA*dG*kG*k[5mC]*eA; antisense) [compound 548322]
- % inhibition [4]: 38%

Substance: 548614 (antisense eT*eG*kG*dT*dG*dG*d[5mC]*dG*dG*dG*dA*dT*d[5mC]*kG*kG*eT) [compound 548614]
- % inhibition [5]: 0%

Reference: patent US11840686B2, “Modulation of prekallikrein (PKK) expression” (Ionis Pharmaceuticals, Inc., priority 2013, dated 2023)
